Results: patent US20200093130A1, “APPLICATION OF TETRAHYDROBENZAZOLE IN PREPARATION OF AGRICULTURAL FUNGICIDE OR FUNGICIDE COMPOSITION AND PREPARATION METHOD THEREOF” (JIANGSU FREY AGROCHEMICALS CO., LTD, priority 2017, published 2020)
Like-named read-outs stand apart in the source and are kept apart here.

Assays:
Phytophthora = type: cell-based; details: Potato late blight
[1] = tested on: Sinoe ampelina (de Bary) Shear; assay: In vitro fungicidal activity, growth rate method (Grape anthracnose); type: cell-based; design: key: “—” means the activity is not obvious
Fusarium moniliforme = assay: In vitro fungicidal activity, growth rate method (Rice bakanae disease); type: cell-based; design: key: “—” means the activity is not obvious
Botryosphaeria = assay: In vitro fungicidal activity, growth rate method (Apple ring spot); type: cell-based; design: key: “—” means the activity is not obvious
Pyricularia grisea = type: cell-based; details: Rice blast
Sclerotinia sclerotiorum [2] = assay: In vitro fungicidal activity, growth rate method (Chili sclerotium); type: cell-based
[3] = type: cell-based, Acinomycete spiculata; details: Cucumber anthrax
Botrytis cinerea [4] = assay: In vitro fungicidal activity, growth rate method (Cucumber gray mold); type: cell-based; design: key: “—” means the activity is not obvious
Mycosphaerella musicola = assay: In vitro fungicidal activity, growth rate method (Banana leaf spot disease); type: cell-based
[5] = In vitro fungicidal activity, growth rate method (Colletotrichum capsici); type: cell-based, Acanthopteris fungi; details: plant disease Colletotrichum capsici
[6] = tested on: Sphaerotheca fuliginea (Schlecht) Poll.; assay: In vitro fungicidal activity, growth rate method (Cucumber powdery mildew); type: cell-based
Sclerotinia sclerotiorum [7] = assay: In vitro fungicidal activity, growth rate method (Cucumber sclerotinia rot); type: cell-based
Altemaria solani = assay: In vitro fungicidal activity, growth rate method (Tomato early blight); type: cell-based
Cercospora arachidicola = assay: In vitro fungicidal activity, growth rate method (Peanut brown spot); type: cell-based; design: key: “—” means the activity is not obvious
[8] = tested on: Helminthosporium carposaprum; assay: In vitro fungicidal activity, growth rate method (Corn spot); type: cell-based
Rhizoctonia solani = assay: In vitro fungicidal activity, growth rate method (Rice sheath blight); type: cell-based
Botrytis cinerea [9] = assay: In vitro fungicidal activity, growth rate method (Strawberry grey mold); type: cell-based; design: key: “—” means the activity is not obvious
Erysiphe = assay: In vitro fungicidal activity, growth rate method (Strawberry powdery mildew); type: cell-based
Alternaria kikuchiana = assay: In vitro fungicidal activity, growth rate method (Pear black spot); type: cell-based
[10] = tested on: Fusarium oxysporum f. sp cucumerinum; assay: In vitro fungicidal activity, growth rate method (Cucumber fusarium wilt); type: cell-based; design: key: “—” means the activity is not obvious
[11] = tested on: Alternaria alternata (Fr.) Keissl; assay: In vitro fungicidal activity, growth rate method (Apple altermaria leaf spot); type: cell-based

CC1COC(Cn2cnnc2)(c2ccc(Oc3ccc(Cl)cc3)cc2Cl)O1 (stereo not drawn) [Formula I, 4-((-(2-chloro-4-(4-chlorophenoxy)phenyl)-4-methyl-1,3-dioxapentan-2-yl)methyl)-4H-1,2,4-triazole]
Fungicidal activity (inhibition ratio %) (Phytophthora; 1 μg/mL): 27.03%
Fungicidal activity (inhibition ratio %) (Phytophthora; 5 μg/mL): 31.96%
Fungicidal activity (inhibition ratio %) (Phytophthora; 10 μg/mL): 43.44%
Fungicidal activity (inhibition ratio %) (Phytophthora; 15 μg/mL): 65.08%
Fungicidal activity (inhibition ratio %) (Phytophthora; 20 μg/mL): 73.63%
Fungicidal activity (inhibition ratio %) ([1]; 1 μg/mL): —
Fungicidal activity (inhibition ratio %) ([1]; 5 μg/mL): 25.12%
Fungicidal activity (inhibition ratio %) ([1]; 10 μg/mL): 42.04%
Fungicidal activity (inhibition ratio %) ([1]; 15 μg/mL): 52.93%
Fungicidal activity (inhibition ratio %) ([1]; 20 μg/mL): 65.18%
Fungicidal activity (inhibition ratio %) (Fusarium moniliforme; 1 μg/mL): —
Fungicidal activity (inhibition ratio %) (Fusarium moniliforme; 5 μg/mL): 22.26%
Fungicidal activity (inhibition ratio %) (Fusarium moniliforme; 10 μg/mL): 36.71%
Fungicidal activity (inhibition ratio %) (Fusarium moniliforme; 15 μg/mL): 45.62%
Fungicidal activity (inhibition ratio %) (Fusarium moniliforme; 20 μg/mL): 61.79%
Fungicidal activity (inhibition ratio %) (Botryosphaeria; 1 μg/mL): —
Fungicidal activity (inhibition ratio %) (Botryosphaeria; 5 μg/mL): 41.28%
Fungicidal activity (inhibition ratio %) (Botryosphaeria; 10 μg/mL): 53.56%
Fungicidal activity (inhibition ratio %) (Botryosphaeria; 15 μg/mL): 68.76%
Fungicidal activity (inhibition ratio %) (Botryosphaeria; 20 μg/mL): 73.46%
Fungicidal activity (inhibition ratio %) (Pyricularia grisea; 1 μg/mL): 11.94%
Fungicidal activity (inhibition ratio %) (Pyricularia grisea; 5 μg/mL): 25.37%
Fungicidal activity (inhibition ratio %) (Pyricularia grisea; 10 μg/mL): 44.73%
Fungicidal activity (inhibition ratio %) (Pyricularia grisea; 15 μg/mL): 58.23%
Fungicidal activity (inhibition ratio %) (Pyricularia grisea; 20 μg/mL): 67.59%
Fungicidal activity (inhibition ratio %) (Sclerotinia sclerotiorum [2]; 1 μg/mL): 12.81%
Fungicidal activity (inhibition ratio %) (Sclerotinia sclerotiorum [2]; 5 μg/mL): 17.96%
Fungicidal activity (inhibition ratio %) (Sclerotinia sclerotiorum [2]; 10 μg/mL): 25.35%
Fungicidal activity (inhibition ratio %) (Sclerotinia sclerotiorum [2]; 15 μg/mL): 39.34%
Fungicidal activity (inhibition ratio %) (Sclerotinia sclerotiorum [2]; 20 μg/mL): 55.18%
Fungicidal activity (inhibition ratio %) ([3]; 1 μg/mL): 37.85%
Fungicidal activity (inhibition ratio %) ([3]; 5 μg/mL): 41.18%
Fungicidal activity (inhibition ratio %) ([3]; 10 μg/mL): 53.51%
Fungicidal activity (inhibition ratio %) ([3]; 15 μg/mL): 58.17%
Fungicidal activity (inhibition ratio %) ([3]; 20 μg/mL): 65.73%
Fungicidal activity (inhibition ratio %) (Botrytis cinerea [4]; 1 μg/mL): —
Fungicidal activity (inhibition ratio %) (Botrytis cinerea [4]; 5 μg/mL): —
Fungicidal activity (inhibition ratio %) (Botrytis cinerea [4]; 10 μg/mL): 5.10%
Fungicidal activity (inhibition ratio %) (Botrytis cinerea [4]; 15 μg/mL): 9.98%
Fungicidal activity (inhibition ratio %) (Botrytis cinerea [4]; 20 μg/mL): 21.26%
Fungicidal activity (inhibition ratio %) (Mycosphaerella musicola; 1 μg/mL): 25.26%
Fungicidal activity (inhibition ratio %) (Mycosphaerella musicola; 5 μg/mL): 31.30%
Fungicidal activity (inhibition ratio %) (Mycosphaerella musicola; 10 μg/mL): 43.35%
Fungicidal activity (inhibition ratio %) (Mycosphaerella musicola; 15 μg/mL): 52.11%
Fungicidal activity (inhibition ratio %) (Mycosphaerella musicola; 20 μg/mL): 66.76%
Fungicidal activity (inhibition ratio %) ([5]; 1 μg/mL): 28.70%
Fungicidal activity (inhibition ratio %) ([5]; 5 μg/mL): 47.29%
Fungicidal activity (inhibition ratio %) ([5]; 10 μg/mL): 53.59%
Fungicidal activity (inhibition ratio %) ([5]; 15 μg/mL): 68.32%
Fungicidal activity (inhibition ratio %) ([5]; 20 μg/mL): 78.96%
Fungicidal activity (inhibition ratio %) ([6]; 1 μg/mL): 38.70%
Fungicidal activity (inhibition ratio %) ([6]; 5 μg/mL): 57.29%
Fungicidal activity (inhibition ratio %) ([6]; 10 μg/mL): 63.59%
Fungicidal activity (inhibition ratio %) ([6]; 15 μg/mL): 78.32%
Fungicidal activity (inhibition ratio %) ([6]; 20 μg/mL): 88.96%
Fungicidal activity (inhibition ratio %) (Sclerotinia sclerotiorum [7]; 1 μg/mL): 12.55%
Fungicidal activity (inhibition ratio %) (Sclerotinia sclerotiorum [7]; 5 μg/mL): 34.23%
Fungicidal activity (inhibition ratio %) (Sclerotinia sclerotiorum [7]; 10 μg/mL): 51.21%
Fungicidal activity (inhibition ratio %) (Sclerotinia sclerotiorum [7]; 15 μg/mL): 64.29%
Fungicidal activity (inhibition ratio %) (Sclerotinia sclerotiorum [7]; 20 μg/mL): 71.84%
Fungicidal activity (inhibition ratio %) (Altemaria solani; 1 μg/mL): 13.20%
Fungicidal activity (inhibition ratio %) (Altemaria solani; 5 μg/mL): 52.88%
Fungicidal activity (inhibition ratio %) (Altemaria solani; 10 μg/mL): 67.29%
Fungicidal activity (inhibition ratio %) (Altemaria solani; 15 μg/mL): 77.88%
Fungicidal activity (inhibition ratio %) (Altemaria solani; 20 μg/mL): 85.86%
Fungicidal activity (inhibition ratio %) (Cercospora arachidicola; 1 μg/mL): —
Fungicidal activity (inhibition ratio %) (Cercospora arachidicola; 5 μg/mL): 19.71%
Fungicidal activity (inhibition ratio %) (Cercospora arachidicola; 10 μg/mL): 31.25%
Fungicidal activity (inhibition ratio %) (Cercospora arachidicola; 15 μg/mL): 39.48%
Fungicidal activity (inhibition ratio %) (Cercospora arachidicola; 20 μg/mL): 56.68%
Fungicidal activity (inhibition ratio %) ([8]; 1 μg/mL): 8.92%
Fungicidal activity (inhibition ratio %) ([8]; 5 μg/mL): 22.44%
Fungicidal activity (inhibition ratio %) ([8]; 10 μg/mL): 33.45%
Fungicidal activity (inhibition ratio %) ([8]; 15 μg/mL): 44.46%
Fungicidal activity (inhibition ratio %) ([8]; 20 μg/mL): 53.22%
Fungicidal activity (inhibition ratio %) (Rhizoctonia solani; 1 μg/mL): 37.80%
Fungicidal activity (inhibition ratio %) (Rhizoctonia solani; 5 μg/mL): 52.79%
Fungicidal activity (inhibition ratio %) (Rhizoctonia solani; 10 μg/mL): 68.48%
Fungicidal activity (inhibition ratio %) (Rhizoctonia solani; 15 μg/mL): 72.82%
Fungicidal activity (inhibition ratio %) (Rhizoctonia solani; 20 μg/mL): 82.56%
Fungicidal activity (inhibition ratio %) (Botrytis cinerea [9]; 1 μg/mL): —
Fungicidal activity (inhibition ratio %) (Botrytis cinerea [9]; 5 μg/mL): —
Fungicidal activity (inhibition ratio %) (Botrytis cinerea [9]; 10 μg/mL): 7.12%
Fungicidal activity (inhibition ratio %) (Botrytis cinerea [9]; 15 μg/mL): 13.46%
Fungicidal activity (inhibition ratio %) (Botrytis cinerea [9]; 20 μg/mL): 29.22%
Fungicidal activity (inhibition ratio %) (Erysiphe; 1 μg/mL): 33.24%
Fungicidal activity (inhibition ratio %) (Erysiphe; 5 μg/mL): 54.62%
Fungicidal activity (inhibition ratio %) (Erysiphe; 10 μg/mL): 67.26%
Fungicidal activity (inhibition ratio %) (Erysiphe; 15 μg/mL): 76.09%
Fungicidal activity (inhibition ratio %) (Erysiphe; 20 μg/mL): 79.02%
Fungicidal activity (inhibition ratio %) (Alternaria kikuchiana; 1 μg/mL): 29.98%
Fungicidal activity (inhibition ratio %) (Alternaria kikuchiana; 5 μg/mL): 35.76%
Fungicidal activity (inhibition ratio %) (Alternaria kikuchiana; 10 μg/mL): 46.61%
Fungicidal activity (inhibition ratio %) (Alternaria kikuchiana; 15 μg/mL): 59.78%
Fungicidal activity (inhibition ratio %) (Alternaria kikuchiana; 20 μg/mL): 67.44%
Fungicidal activity (inhibition ratio %) ([10]; 1 μg/mL): —
Fungicidal activity (inhibition ratio %) ([10]; 5 μg/mL): —
Fungicidal activity (inhibition ratio %) ([10]; 10 μg/mL): 18.32%
Fungicidal activity (inhibition ratio %) ([10]; 15 μg/mL): 31.77%
Fungicidal activity (inhibition ratio %) ([10]; 20 μg/mL): 48.18%
Fungicidal activity (inhibition ratio %) ([11]; 1 μg/mL): 26.94%
Fungicidal activity (inhibition ratio %) ([11]; 5 μg/mL): 34.48%
Fungicidal activity (inhibition ratio %) ([11]; 10 μg/mL): 52.31%
Fungicidal activity (inhibition ratio %) ([11]; 15 μg/mL): 66.71%
Fungicidal activity (inhibition ratio %) ([11]; 20 μg/mL): 74.65%
